Data published in PubChem BioAssay (NCI).
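Dose response: 5 concentrations. Exposure: 48 h. Format: 96-well plates. Endpoint: linear interpolation; highest concentration if not reached. GI50: concentration for 50% inhibition of growth. TGI: concentration producing complete growth inhibition.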

Assays:
Assay in all cases: DTP human tumour cell line panel, 48 h
UO-31 renal = system: UO-31 renal
SF-295 CNS = system: SF-295 CNS
HS 578T breast = system: HS 578T breast
MDA-MB-231 breast = system: MDA-MB-231 breast
SR leukemia = system: SR leukemia
K-562 leukemia = system: K-562 leukemia
MOLT-4 leukemia = system: MOLT-4 leukemia
TK-10 renal = system: TK-10 renal
HL-60(TB) leukemia = system: HL-60(TB) leukemia
NCI-H522 lung = system: NCI-H522 lung
NCI/ADR-RES ovarian = system: NCI/ADR-RES ovarian
OVCAR-5 ovarian = system: OVCAR-5 ovarian
HT29 colon = system: HT29 colon
786-0 renal = system: 786-0 renal
ACHN renal = system: ACHN renal
LOX IMVI melanoma = system: LOX IMVI melanoma
OVCAR-8 ovarian = system: OVCAR-8 ovarian
T-47D breast = system: T-47D breast
OVCAR-4 ovarian = system: OVCAR-4 ovarian
KM12 colon = system: KM12 colon
MALME-3M melanoma = system: MALME-3M melanoma
SN12C renal = system: SN12C renal
A498 renal = system: A498 renal
SK-MEL-2 melanoma = system: SK-MEL-2 melanoma
NCI-H23 lung = system: NCI-H23 lung
UACC-257 melanoma = system: UACC-257 melanoma
MDA-MB-435 = system: MDA-MB-435
SK-MEL-5 melanoma = system: SK-MEL-5 melanoma

Question: With O=C1Nc2ccccc2C1(c1c[nH]c2ccccc12)c1c[nH]c2ccccc12 as the molecule, how does the GI50 (UO-31 renal) read?
Answer: 1.18 µM

Question: What about the TGI (UO-31 renal) of the same molecule?
Answer: 3.04 µM

Question: And the GI50 (SF-295 CNS)?
Answer: 2.02 µM

Question: And the TGI (SF-295 CNS)?
Answer: 4.7 µM

Question: And the GI50 (HS 578T breast)?
Answer: 2.05 µM

Question: What about the TGI (HS 578T breast) of the same molecule?
Answer: 5.16 µM

Question: What about the GI50 (MDA-MB-231 breast) of the same molecule?
Answer: 2.3 µM

Question: What about the TGI (MDA-MB-231 breast) of the same molecule?
Answer: 5.96 µM

Question: And the GI50 (SR leukemia)?
Answer: 4 µM

Question: What about the TGI (SR leukemia) of the same molecule?
Answer: > 100 µM

Question: And the GI50 (K-562 leukemia)?
Answer: 3.94 µM

Question: What about the TGI (K-562 leukemia) of the same molecule?
Answer: > 100 µM

Question: And the GI50 (MOLT-4 leukemia)?
Answer: 3.77 µM

Question: And the TGI (MOLT-4 leukemia)?
Answer: 28.9 µM

Question: And the GI50 (TK-10 renal)?
Answer: 2.31 µM

Question: And the TGI (TK-10 renal)?
Answer: 5.41 µM

Question: What about the GI50 (HL-60(TB) leukemia) of the same molecule?
Answer: 3.72 µM

Question: What about the TGI (HL-60(TB) leukemia) of the same molecule?
Answer: 37.6 µM

Question: And the GI50 (NCI-H522 lung)?
Answer: 2.01 µM

Question: What about the TGI (NCI-H522 lung) of the same molecule?
Answer: 4.71 µM

Question: And the GI50 (NCI/ADR-RES ovarian)?
Answer: 2.15 µM

Question: What about the TGI (NCI/ADR-RES ovarian) of the same molecule?
Answer: 5.03 µM

Question: And the GI50 (OVCAR-5 ovarian)?
Answer: 2.52 µM

Question: And the TGI (OVCAR-5 ovarian)?
Answer: 7.6 µM

Question: And the GI50 (HT29 colon)?
Answer: 3.23 µM

Question: And the TGI (HT29 colon)?
Answer: 11.4 µM

Question: What about the GI50 (786-0 renal) of the same molecule?
Answer: 2.01 µM

Question: What about the TGI (786-0 renal) of the same molecule?
Answer: 4.11 µM

Question: And the GI50 (ACHN renal)?
Answer: 1.82 µM

Question: And the TGI (ACHN renal)?
Answer: 3.58 µM

Question: What about the GI50 (LOX IMVI melanoma) of the same molecule?
Answer: 1.7 µM

Question: What about the TGI (LOX IMVI melanoma) of the same molecule?
Answer: 3.32 µM

Question: And the GI50 (OVCAR-8 ovarian)?
Answer: 2.15 µM

Question: And the TGI (OVCAR-8 ovarian)?
Answer: 5.18 µM

Question: And the GI50 (T-47D breast)?
Answer: 1.99 µM

Question: And the TGI (T-47D breast)?
Answer: 4.69 µM

Question: What about the GI50 (OVCAR-4 ovarian) of the same molecule?
Answer: 2.48 µM

Question: What about the TGI (OVCAR-4 ovarian) of the same molecule?
Answer: 7.45 µM

Question: What about the GI50 (KM12 colon) of the same molecule?
Answer: 2.3 µM

Question: And the TGI (KM12 colon)?
Answer: 5.96 µM

Question: What about the GI50 (MALME-3M melanoma) of the same molecule?
Answer: 2.47 µM

Question: And the TGI (MALME-3M melanoma)?
Answer: 6.93 µM

Question: What about the GI50 (SN12C renal) of the same molecule?
Answer: 1.89 µM

Question: And the TGI (SN12C renal)?
Answer: 4.29 µM

Question: And the GI50 (A498 renal)?
Answer: 1.81 µM

Question: And the TGI (A498 renal)?
Answer: 3.63 µM

Question: What about the GI50 (SK-MEL-2 melanoma) of the same molecule?
Answer: 2.08 µM

Question: And the TGI (SK-MEL-2 melanoma)?
Answer: 4.51 µM

Question: And the GI50 (NCI-H23 lung)?
Answer: 2.08 µM

Question: And the TGI (NCI-H23 lung)?
Answer: 4.48 µM

Question: What about the GI50 (UACC-257 melanoma) of the same molecule?
Answer: 3.67 µM

Question: What about the TGI (UACC-257 melanoma) of the same molecule?
Answer: 16.6 µM

Question: And the GI50 (MDA-MB-435)?
Answer: 3.34 µM

Question: And the TGI (MDA-MB-435)?
Answer: 11.7 µM

Question: What about the GI50 (SK-MEL-5 melanoma) of the same molecule?
Answer: 2.18 µM

Question: And the TGI (SK-MEL-5 melanoma)?
Answer: 4.81 µM
